Literature values, collected in patent publication US12370233B2, “Depot systems comprising glatiramer acetate” (MAPI PHARMA LTD., priority 2016, dated 2025).

Settings: as reported by Rotstein et al., JAMA Neurol., 2015

Substance | NEDA at one year [%]
daclizumab [ZINBRYTA®] | 39
natalizumab [TYSABRI®] | 47
